Results: EP0744402B1, “POTASSIUM SALT OF BIPHENYLMETHANE DERIVATIVE AND MEDICINE CONTAINING THE SAME” (priority 1994, dated 1995)
Structures can show the parent of a compound that is named as a salt.

What was measured:
[1] = tested on: renal hypertensive rats; experiment: Antihypertensive action on renal hypertensive rats (invasive); type: in vivo, rat; settings: male SD renal hypertensive rats, mean blood pressure, orally 0.3 mg/kg, suspended in 0.5% carboxymethyl cellulose
Description: Antihypertensive action on renal hypertensive rats (invasive)
Renal hypertensive rats were each prepared by constricting the left renal artery of a male SD rat (age: 6 weeks old, body weight: 190-220 g) with a silver clip (inner diameter: 0.017 inch) under anesthesia. Antihypertensive action was studied employing the rats whose mean blood pressure arose to 150 mmHg or higher in 4-8 weeks after the constriction of the renal artery. On the day before the test, a cannula for measure of blood pressure was inserted into the femoral artery of each of the renal hypertensive rats under anesthesia and was allowed to remain in the artery. The rats were maintained on food and water ad libitum until immediately before the test was started. The cannula so inserted was connected to a blood pressure transducer and a mean blood pressure was recorded on a polygraph. After the blood pressure became stable, the test compound which was suspended in 0.5% carboxymethyl cellulose was orally administered to each of the rats at 0.3 mg/kg. In accordance with the following equation, a decreased rate of blood pressure (%) was calculated from the blood pressure values before and after the administration of the test compound.

[2] = Measurement of bioavailability in rat; type: in vivo; settings: SD male rats, fasted overnight, 3 mg/kg intravenously (physiological saline) and orally (0.5% carboxymethyl cellulose), from plasma AUC by HPLC
Experimental: Measurement of bioavailability in rat
SD Male rats of 6 weeks old (5 rats a group) were fasted overnight. The test compound was then administered to each of the rats at 3 mg/kg intravenously after dissolved in physiological saline and orally after suspended in 0.5% carboxymethyl cellulose, respectively. After administration, blood was collected periodically. From the blood so collected, plasma was separated by centrifugation. The test compound in the plasma was determined by high-performance liquid chromatography and based on it, areas under concentration (AUC) in intravenous administration and oral administration were found respectively. Bioavailability (BA) of the test compound for the rats was calculated in accordance with the following equation.

[3] = tested on: angiotensin II; experiment: Inhibition of the angiotensin II-induced blood pressure increase in conscious normotensive rats after oral administration (invasive); type: in vivo, rat; settings: male SD rats; angiotensin II intravenously 0.1 µg/kg; test compound orally 1.0 mg/kg in 0.5% carboxymethyl cellulose
Experimental: On the day before the test, a cannula for the measurement of blood pressure and another cannula for the administration of a solution of angiotensin II (AII) in physiological saline (intravenously administered at 0.1 µg/kg) were inserted into the right femoral artery and the right femoral vein of each of the male SD rats (body weight: 200-350 g), respectively, under anesthesia. The rats were maintained on food and water ad libitum until immediately before the test was started. On the testing day, the former cannula so inserted was connected to a blood pressure transducer and the mean blood pressure was recorded on a polygraph. The solution of AII in physiological saline was then intravenously administered to each of the rats to raise its blood pressure. The blood-pressure raising response was repeated several times. […] In accordance with the following equation, an inhibitory rate (%) of blood pressure increase was calculated from the blood pressure increases before and after the administration of the test compound.

Compound	Rate of decrease in blood pressure ([1]; 0.3 mg/kg) [%]	BA (%) [2] [%]	Inhibition of blood pressure increase (%) [3] [%]	Rate of decrease in blood pressure [1] [%]
CCc1nn(Cc2ccc(-c3ccccc3-c3nn[nH]n3)cc2)c(=NC(=O)C2=C(C(=O)O)CCC2)s1 [Control 2Na salt, reference compound]	12.9			
CCc1nn(Cc2ccc(-c3ccccc3-c3nnn[nH]3)cc2)c(=NC(=O)C2=C(C(=O)O)CCC2)s1 [Compound A, dipotassium 2-[[5-ethyl-3-[2'-(1H-tetrazol-5-yl)biphenyl-4-yl]methyl-1,3,4-thiadiazolin-2-ylidene]aminocarbonyl]-1-cyclopentenecarboxylate]	23.0	42.8	84.6	
CCc1nn(Cc2ccc(-c3ccccc3-c3nnn[nH]3)cc2)c(=NC(=O)C2=C(C(=O)[O-])CCC2)s1.[K+] [Compound B, monopotassium 2-[[5-ethyl-3-[2' -(1H-tetrazol-5-yl)biphenyl-4-yl]methyl-1,3,4-thiadiazolin-2-ylidene]aminocarbonyl]-1-cyclopentenecarboxylate]				19.8
CCc1nn(Cc2ccc(-c3ccccc3-c3nnn[nH]3)cc2)c(=NC(=O)C2=C(C(=O)O)CCC2)s1 [Compound (2), 2-[[5-Ethyl-3-[2'-(1H-tetrazol-5-yl)biphenyl-4-yl]methyl-1,3,4-thiadiazolin-2-ylidene]aminocarbonyl]-1-cyclopentenecarboxylic acid]		12.0	54.2	10.8
